From patent US8217071B2, “Use of inhibitors of the degradation of p27, in particular Argyrin and derivatives thereof, for the treatment of proliferative diseases” (Helmholtz Zentrum für Infektionsforschung GmbH, priority 2007, dated 2012)
Numbered stars: 1 amine (or outer) side, 2 acyl side, 3 side chain; on linkers, the order of the positions; unused ones are H or OH. Square brackets hold non-standard residues; d marks the D form. Peptide text beside a SMILES is read from it. dAla(ψthiazole) = C[C@@H](N[*:1])c1nc(C(=O)[*:2])cs1; Trp(4-OMe) = COc1cccc2[nH]cc(C[C@H](N)C(=O)O)c12; Dha = C=C(N)C(=O)O; Sar = CNCC(=O)O

What was measured:
[1] = test system: MCF7 cells; test: Gene expression signature (DNA microarray) of MCF7 cells; format: cell-based, human
Procedure: The inventors decided to compare the cellular responses of cells treated with Argyrin A or bortezomib directly. To this end the inventors determined the gene expression signature of MCF7 cells in response to Argyrin A or bortezomib and compared the resulting gene expression profiles. […] As shown in FIG. 2G the gene expression profiles of MCF7 cells which were treated with either bortezomib or Argyrin A differ dramatically. While bortezomib treatment led to changes in the expression of more than 10900 genes, only about 500 genes changed in response to Argyrin A treatment. Among these genes, 311 were affected by both bortezomib and Argyrin A, respectively.
Quality and integrity of the total RNA isolated was controlled by running all samples on an Agilent Technologies 2100 Bioanalyzer (Agilent Technologies; Waldbronn, Germany). For biotin-labelled target synthesis starting from 3 μg of total RNA, reactions were performed using standard protocols supplied by the manufacturer (Affymetrix; Santa Clara, Calif.). In each case 10 μg of labelled cRNA were hybridized to an identical lot of Affymetrix GeneChips HG-U133 2.0 for 16 hours at 45° C. After hybridisation the GeneChips were washed, stained with SA-PE and read using an Affymetrix GeneChip fluidic station and scanner.
Analysis of microarray data was performed using the Affymetrix GCOS 1.2 software. […]

[2] = test system: SW480 colon carcinoma xenotransplant tumours; test: SW480 xenotransplant tumours in nu/nu mice; format: in vivo, mouse; details: for proteasome activity in the primary tumour tissue: single dose
Procedure: At the indicated timepoints 20S proteasome was isolated from peripheral blood cells and the activity of the different proteasome subunits was determined as described (FIG. 1d). b) SW480 colon carcinoma cell lines mixed with matrigel were injected under the skin of nu/nu mice to establish xenotransplant tumours. Treatment with Argyrin A or bortezomib was started when these tumours reached a volume of 200 mm^3. […] The activity of the respective proteasome subunits was determined as described previously (FIG. 1d). e) Determination of the number of p27^kip1 positive cells in tumour tissue after Argyrin A treatment. The pictures show representative samples of immunohistochemical stainings for p27 in tumour tissues after 10 days of Argyrin A treatment. f) Detection of apoptotic cells in xenotransplanted tumours by TUNEL staining of tumour tissues after treatment with Argyrin A or bortezomib. At least 200 cells were counted on five independent sections to quantitate the number of apoptotic cells.
MTT assays were done as previously described (Sasse, F. et al. Argyrins, immunosuppressive cyclic peptides from myxobacteria. I. Production, isolation, physico-chemical and biological properties. J Antibiot (Tokyo) 55, 543-51 (2002)). TUNEL staining of tissue sections was performed on 10 micrometer sections which were deparafinised and treated as recommended by the manufacturer. (In Situ Cell Death Detection Kit, Fluorescein; ROCHE, Cat #11 684 795 910). Flow cytometric analysis of cultured cells was done using a Becton Dickinson fluorescence cytometer as previously described (Malek, N. P. et al. A mouse knock-in model exposes sequential proteolytic pathways that regulate p27^Kip1 in G1 and S phase. Nature 413, 323-7 (2001)). Analysis of the distribution of cells in the cell cycle and the sub-G1 fraction was done using Cell Quest software. A histone-associated-DNA-fragments ELISA was used to determine the number of apoptotic cells according to manufacturers instructions (Roche #11 774425001).
Proteasome assays using proteasome purified from cells or tissues were carried out in a 100 μL reaction volume containing 20 μg proteasome extract, 50 mmol/L EDTA and 60 μmol/L fluorogenic substrate (chymotrypsin-like (CT-L), trypsin-like (T-L) or caspase-like (C-L)) in ATP/DTT lysis buffer at 37° C. The assay buffer was supplemented with a final concentration of 0.05% SDS for the evaluation of the chymotrypsin-like activity and caspase-like activity. The rate of cleavage of fluorogenic peptide substrates was determined by monitoring the fluorescence of released amonomethylcoumarin using a Victor 1420 Multilabel counter (Wallac) at an excitation wavelength of 395 nm and emission wavelength of 460 nm over a period of 60 min.
1×10^7 SW480 cells or HCT116 cells (in 100 microliters DMEM medium and 100 microliters matrigel) were s.c. injected into the flanks of NMRI nu/nu mice. Tumours grew for approx. 18 days until they reached appropriate size (200 mm3). Tumour size was measured with a digital calliper and calculated with the help of the following formula: (Length×width2)*π/6. All experiments were done after review and in accordance with the animal rights and protection agencies of Lower Saxony, Germany.

| SMILES | number of genes with changed expression [1] | size of the xenotransplanted tumours ([2]; SW480, 0.15 mg/kg i.p. every three days) | apoptotic cell death, share of all tumor cells ([2]; SW480 xenograft, TUNEL staining) [%] | p27^kip1 in tumour tissue ([2]; SW480 xenograft, immunohistochemistry) | proteasome activity in the primary tumour tissue [2] |
| --- | --- | --- | --- | --- | --- |
| C=C1NC(=O)[C@@H](C)NC(=O)CNC(=O)[C@H](Cc2c[nH]c3cccc(OC)c23)NC(=O)[C@H](Cc2c[nH]c3ccccc23)NC(=O)c2csc(n2)[C@@H](C)NC(=O)CN(C)C1=O [Argyrin A] (cyclo(W[Trp(4-OMe)]G[dA][Dha][Sar][dAla(ψthiazole)])) | about 500 genes | significant reduction | > 60 | induction | significant reduction |
| CC(C)C[C@H](NC(=O)[C@H](Cc1ccccc1)NC(=O)c1cnccn1)B(O)O [bortezomib, reference compound] | more than 10900 genes | – | – | – | significant reduction |
